pIC50: −log10 of the molar value.

The target in one test is T1, Integrin alpha-4 (Homo sapiens, UniProt P13612).
T1 sequence (P13612 whole entry): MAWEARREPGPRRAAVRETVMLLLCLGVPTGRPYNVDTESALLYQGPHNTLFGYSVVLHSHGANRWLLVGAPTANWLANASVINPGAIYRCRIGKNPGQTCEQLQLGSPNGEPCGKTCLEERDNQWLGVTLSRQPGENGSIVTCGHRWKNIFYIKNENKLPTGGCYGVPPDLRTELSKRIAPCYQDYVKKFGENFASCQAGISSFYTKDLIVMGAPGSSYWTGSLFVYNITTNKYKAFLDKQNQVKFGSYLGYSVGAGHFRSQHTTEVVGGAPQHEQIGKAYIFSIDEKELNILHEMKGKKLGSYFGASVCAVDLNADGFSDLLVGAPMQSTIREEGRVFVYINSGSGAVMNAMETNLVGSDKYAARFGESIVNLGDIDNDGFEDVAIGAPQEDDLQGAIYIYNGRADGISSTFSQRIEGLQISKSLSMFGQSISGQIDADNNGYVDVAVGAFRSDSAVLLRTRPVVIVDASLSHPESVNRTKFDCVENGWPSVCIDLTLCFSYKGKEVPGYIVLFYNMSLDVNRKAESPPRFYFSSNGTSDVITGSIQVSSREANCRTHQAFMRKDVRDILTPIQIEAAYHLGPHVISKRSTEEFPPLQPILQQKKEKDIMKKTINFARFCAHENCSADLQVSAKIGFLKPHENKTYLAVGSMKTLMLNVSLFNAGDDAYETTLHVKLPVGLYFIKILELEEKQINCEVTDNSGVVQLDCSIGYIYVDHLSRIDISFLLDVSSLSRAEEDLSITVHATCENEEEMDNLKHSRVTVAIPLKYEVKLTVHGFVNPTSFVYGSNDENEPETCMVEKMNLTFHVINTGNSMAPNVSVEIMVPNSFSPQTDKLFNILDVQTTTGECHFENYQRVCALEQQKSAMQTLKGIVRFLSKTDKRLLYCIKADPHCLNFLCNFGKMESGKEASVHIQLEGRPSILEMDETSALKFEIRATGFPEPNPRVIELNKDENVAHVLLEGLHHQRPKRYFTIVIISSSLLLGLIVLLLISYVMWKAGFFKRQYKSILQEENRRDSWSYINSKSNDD
Kind of test: Displacement of [125I]VCAMIg from VLA4 expressed in Jurkat cells. The format is cell-based.
On to `O=C(O)C(Cc1ccccc1)N1C[C@@H]2CCN(S(=O)(=O)c3cc(Cl)cc(Cl)c3)[C@@H]2C1=O` (stereo not given in full), for which the pIC50 was 5.68. In turn, `O=C(O)c1nc(CN(C2CCCCC2)S(=O)(=O)c2cc(Cl)cc(Cl)c2)[nH]c1Cc1ccc(-c2ccccc2)cc1` gave a pIC50 of 6.63. On the same count and under the same terms, as for `COc1ccccc1-c1ccc(C[C@H](NC(=O)[C@@H]2CCCN2S(=O)(=O)c2cc(Cl)cc(Cl)c2)C(=O)O)cc1`, the figure is 9.19; as for `O=C(O)c1[nH]c(CN(C2CCCCC2)S(=O)(=O)c2cc(Cl)cc(Cl)c2)nc1Cc1ccc2ccccc2c1`, 6.55. The same measure, in the same setting: as for `CC(C)C(c1nc(Cc2ccc3ccccc3c2)c(C(=O)O)[nH]1)N(C)S(=O)(=O)c1cc(Cl)cc(Cl)c1` (stereo not given), the figure is 5.60.

On to `O=C(O)[C@H](Cc1ccccc1)NC(=O)[C@@H]1CCCN1S(=O)(=O)c1cc(Cl)cc(Cl)c1`, for which the pIC50 was 8.85.

The next test has as its target Integrin alpha-4 (Homo sapiens) (UniProt P13612). Briefly: Displacement of [125I]VCAMIg from VLA4 expressed in Jurkat cells at 100 uM. Format: cell-based.
Regarding `O=C(O)c1[nH]c(C2CCCN2S(=O)(=O)c2cc(Cl)cc(Cl)c2)nc1Cc1ccc2ccccc2c1` (stereo not given), the inhibition is 30%. Same read-out and setting: as for `O=C(O)c1nc(C2CCCN2S(=O)(=O)c2cc(Cl)cc(Cl)c2)sc1-c1ccc2ccccc2c1` (stereo not given), the figure is 19%; as for `O=C(O)c1[nH]c(C2CCCN2S(=O)(=O)c2cc(Cl)cc(Cl)c2)nc1-c1ccc2ccccc2c1` (stereo not given), 8%.

Regarding `O=C(O)c1[nH]c(CN(C2CCCCC2)S(=O)(=O)c2cc(Cl)cc(Cl)c2)nc1-c1ccc(-c2ccccc2)cc1`, the inhibition stood at 45%.

(Values after ChEMBL document CHEMBL1141621, “Constraining the amide bond in N-sulfonylated dipeptide VLA-4 antagonists” (Bioorg Med Chem Lett, 2008).)
